Patent US8859569B2, “Substituted annellated pyrimidines and use thereof” (Bayer Pharma Aktiengesellschaft, priority 2011, dated 2014)

What was measured:
[1] = molecular target: T1, recombinant guanylate cyclase reporter cell line (Rattus norvegicus, UniProt P19686+P20595); experiment: Action on recombinant guanylate cyclase reporter cell line; assay type: cell-based
T1 construct: expressed in transfected cells
T1 sequence (P20595 1-619): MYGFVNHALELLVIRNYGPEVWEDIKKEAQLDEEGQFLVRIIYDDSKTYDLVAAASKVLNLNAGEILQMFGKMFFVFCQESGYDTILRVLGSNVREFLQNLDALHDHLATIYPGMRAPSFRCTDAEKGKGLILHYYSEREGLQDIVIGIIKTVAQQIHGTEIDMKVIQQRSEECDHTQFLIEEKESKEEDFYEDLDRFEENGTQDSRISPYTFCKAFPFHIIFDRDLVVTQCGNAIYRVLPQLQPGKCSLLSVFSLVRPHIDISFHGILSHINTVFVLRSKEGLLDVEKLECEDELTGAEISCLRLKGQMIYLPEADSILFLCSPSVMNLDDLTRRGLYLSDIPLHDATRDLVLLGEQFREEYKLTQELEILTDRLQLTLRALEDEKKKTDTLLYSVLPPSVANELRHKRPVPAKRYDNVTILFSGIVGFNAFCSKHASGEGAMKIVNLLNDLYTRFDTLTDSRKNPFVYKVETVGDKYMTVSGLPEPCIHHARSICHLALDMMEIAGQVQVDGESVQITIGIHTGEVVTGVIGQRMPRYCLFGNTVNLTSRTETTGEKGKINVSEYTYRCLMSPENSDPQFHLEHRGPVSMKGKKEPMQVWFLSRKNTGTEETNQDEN
T1 sequence (P19686 1-690): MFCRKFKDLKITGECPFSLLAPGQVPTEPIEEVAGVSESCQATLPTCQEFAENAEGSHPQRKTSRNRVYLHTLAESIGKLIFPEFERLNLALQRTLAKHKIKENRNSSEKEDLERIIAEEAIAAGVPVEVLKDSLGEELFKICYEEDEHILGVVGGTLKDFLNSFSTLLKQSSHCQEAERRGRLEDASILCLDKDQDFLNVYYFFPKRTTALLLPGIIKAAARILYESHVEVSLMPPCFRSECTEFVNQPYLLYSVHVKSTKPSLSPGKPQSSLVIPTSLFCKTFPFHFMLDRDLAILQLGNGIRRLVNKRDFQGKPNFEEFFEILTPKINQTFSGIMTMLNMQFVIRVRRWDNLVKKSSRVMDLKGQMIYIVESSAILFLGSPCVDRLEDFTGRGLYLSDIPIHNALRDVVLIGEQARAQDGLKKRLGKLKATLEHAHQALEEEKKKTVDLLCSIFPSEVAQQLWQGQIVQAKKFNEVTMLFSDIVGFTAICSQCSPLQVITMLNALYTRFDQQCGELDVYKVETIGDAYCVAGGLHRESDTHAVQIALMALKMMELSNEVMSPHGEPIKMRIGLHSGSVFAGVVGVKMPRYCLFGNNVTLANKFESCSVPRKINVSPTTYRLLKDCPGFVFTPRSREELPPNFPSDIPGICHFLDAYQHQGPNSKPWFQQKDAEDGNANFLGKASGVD
Description: B-2. Action on Recombinant Guanylate Cyclase Reporter Cell Line
The cellular action of the compounds according to the invention is determined on a recombinant guanylate cyclase reporter cell line, as described in F. Wunder et al., Anal. Biochem. 339, 104-112 (2005).

[2] = molecular target: T2, human phosphodiesterase 5 (PDE-5) (Homo sapiens, UniProt O76074); experiment: Inhibition of human phosphodiesterase 5 (PDE-5), SPA assay; assay type: biochemical; settings: PDE-5 preparation from human platelets, [8-3H]cGMP substrate
T2 construct: PDE-5 preparations are obtained from human platelets by lysis; from tissue; host or cells: human platelets
Description: B-6. Inhibition of Human Phosphodiesterase 5 (PDE-5)
PDE-5 preparations are obtained from human platelets by lysis (Microfluidizer®, 800 bar, 3 passages), followed by centrifugation (75000 g, 60 min, 4° C.) and ion-exchange chromatography of the supernatant on a Mono Q 10/10 column (linear sodium chloride gradient, elution with a 0.2-0.3M solution of sodium chloride in buffer (20 mM Hepes pH 7.2, 2 mM magnesium chloride). Fractions that have PDE-5 activity are combined (PDE-5 preparation) and stored at −80° C.
For determining their in-vitro action on human PDE-5, the test substances are dissolved in 100% DMSO and serial dilutions are prepared. Typically, dilution series (1:3) from 200 μM to 0.091 μM are prepared (resultant final concentrations in the test: 4 μM to 0.0018 μM). In each case 2 μL of the diluted solutions of the substance are put in the wells of microtitre plates (Isoplate-96/200W; Perkin-Elmer). Then 50 μL of a dilution of the PDE-5 preparation described above is added. The dilution of the PDE-5 preparation is selected so that during subsequent incubation less than 70% of the substrate is reacted (typical dilution: 1:100; dilution buffer: 50 mM Tris/hydrochloric acid pH 7.5, 8.3 mM magnesium chloride, 1.7 mM EDTA, 0.2% BSA). The substrate [8-^3H]cyclic guanosine-3′,5′-monophosphate (1 μCi/μL; Perkin-Elmer) is diluted 1:2000 with assay buffer (50 mM Tris/hydrochloric acid pH 7.5, 8.3 mM magnesium chloride, 1.7 mM EDTA) to a concentration of 0.0005 μCi/μL. The enzyme reaction is finally started by adding 50 μL (0.025 μCi) of the diluted substrate. The test preparations are incubated for 60 min at room temperature and the reaction is stopped by adding 25 μL of a suspension of 18 mg/mL of Yttrium Scintillation Proximity Beads in water (phosphodiesterase beads for SPA assays, RPNQ 0150, Perkin-Elmer). The microtitre plates are sealed with film and left to stand for 60 min at room temperature. Then the plates are measured for 30 s per well in a Microbeta scintillation counter (Perkin-Elmer). IC50 values are determined on the basis of the graphs plotted of the substance concentration versus the percentage PDE-5 inhibition.

SMILES | MEC (minimal effective concentration) [1] [μm] | IC50 [2] [nM]
Cn1nccc1CNc1nc(-c2nn(Cc3ccccc3F)c3ncccc23)nc2c1C(C)(C)C(=O)N2 [Example 40, 2-[1-(2-Fluorobenzyl)-1H-pyrazolo[3,4-b]pyridin-3-yl]-5,5-dimethyl-4-{[(1-methyl-1H-pyrazol-5-yl)methyl]amino}-5,7-dihydro-6H-pyrrolo[2,3-d]pyrimidin-6-one] | 0.1 | 11
CC1(C)C(=O)Nc2nc(-c3nn(Cc4ccccc4F)c4ncccc34)nc(NCc3ccccc3F)c21 [Example 42, 4-[(2-fluorobenzyl)amino]-2-[1-(2-fluorobenzyl)-1H-pyrazolo[3,4-b]pyridin-3-yl]-5,5-dimethyl-5,7-dihydro-6H-pyrrolo[2,3-d]pyrimidin-6-one] | 0.1 | 120
CC1(C)C(=O)Nc2nc(-c3nn(Cc4ccccc4F)c4ncccc34)nc(N3C[C@@H]4C[C@H]3CO4)c21 [Example 46, 2-[1-(2-fluorobenzyl)-1H-pyrazolo[3,4-b]pyridin-3-yl]-5,5-dimethyl-4-[(1S,4S)-2-oxa-5-azabicyclo[2.2.1]hept-5-yl]-5,7-dihydro-6H-pyrrolo[2,3-d]pyrimidin-6-one] | 0.1 | 35
CC1(C)C(=O)Nc2nc(-c3nn(Cc4ccccc4F)c4ncccc34)nc(N3CCCCC3)c21 [Example 54, 2-[1-(2-fluorobenzyl)-1H-pyrazolo[3,4-b]pyridin-3-yl]-5,5-dimethyl-4-(piperidin-1-yl)-5,7-dihydro-6H-pyrrolo[2,3-d]pyrimidin-6-one] | 0.03 | 
CC1(C)C(=O)Nc2nc(-c3nn(Cc4ccccc4F)c4ncccc34)nc(NCc3ccc(F)cc3)c21 [Example 77, 4-[(4-fluorobenzyl)amino]-2-[1-(2-fluorobenzyl)-1H-pyrazolo[3,4-b]pyridin-3-yl]-5,5-dimethyl-5,7-dihydro-6H-pyrrolo[2,3-d]pyrimidin-6-one] | 0.1 | 
C[C@H](Nc1nc(-c2nn(Cc3ccccc3F)c3ncccc23)nc2c1C(C)(C)C(=O)N2)C(N)=O [Example 79, N2-{2-[1-(2-fluorobenzyl)-1H-pyrazolo[3,4-b]pyridin-3-yl]-5,5-dimethyl-6-oxo-6,7-dihydro-5H-pyrrolo[2,3-d]pyrimidin-4-yl}-L-alaninamide] | 0.1 | 
CC1(C)C(=O)Nc2nc(-c3nn(Cc4ccccc4F)c4ncccc34)nc(N3CCNC(=O)C3)c21 [Example 82, 2-[1-(2-fluorobenzyl)-1H-pyrazolo[3,4-b]pyridin-3-yl]-5,5-dimethyl-4-(3-oxopiperazin-1-yl)-5,7-dihydro-6H-pyrrolo[2,3-d]pyrimidin-6-one] | 0.1 | 
CCOC(=O)C1(C)C(=O)Nc2nc(-c3nn(Cc4ccccc4F)c4ncccc34)nc(O)c21 (centres unmarked) [Example 101, Ethyl-2-[1-(2-fluorobenzyl)-1H-pyrazolo[3,4-b]pyridin-3-yl]-4-hydroxy-5-methyl-6-oxo-6,7-dihydro-5H-pyrrolo[2,3-d]pyrimidine-5-carboxylate] |  | 870

The next lines start with the values.

MEC (minimal effective concentration) [1] [μm] | IC50 [2] [nM] | SMILES
0.3 |  | CC1(C)C(=O)Nc2nc(-c3nn(Cc4ccccc4F)c4ncccc34)nc(NC3CCOC3)c21 (racemic) [Example 49, 2-[1-(2-fluorobenzyl)-1H-pyrazolo[3,4-b]pyridin-3-yl]-5,5-dimethyl-4-(tetrahydrofuran-3-ylamino)-5,7-dihydro-6H-pyrrolo[2,3-d]pyrimidin-6-one]
0.01 | 170 | Cc1ccc(CNc2nc(-c3nn(Cc4ccccc4F)c4ncccc34)nc3c2C(C)(C)C(=O)N3)o1 [Example 41, 2-[1-(2-fluorobenzyl)-1H-pyrazolo[3,4-b]pyridin-3-yl]-5,5-dimethyl-4-{[(5-methylfuran-2-yl)methyl]amino}-5,7-dihydro-6H-pyrrolo[2,3-d]pyrimidin-6-one]
0.03 | 410 | CC1(C)C(=O)Nc2nc(-c3nn(Cc4ccccc4F)c4ncccc34)nc(NCC3CC3)c21 [Example 43, 4-[(cyclopropylmethyl)amino]-2-[1-(2-fluorobenzyl)-1H-pyrazolo[3,4-b]pyridin-3-yl]-5,5-dimethyl-5,7-dihydro-6H-pyrrolo[2,3-d]pyrimidin-6-one]
0.1 | 86 | CC(=O)NCCNc1nc(-c2nn(Cc3ccccc3F)c3ncccc23)nc2c1C(C)(C)C(=O)N2 [Example 44, N-[2-({2-[1-(2-fluorobenzyl)-1H-pyrazolo[3,4-b]pyridin-3-yl]-5,5-dimethyl-6-oxo-6,7-dihydro-5H-pyrrolo[2,3-d]pyrimidin-4-yl}amino)ethyl]acetamide]
0.1 | 78 | CC1(C)C(=O)Nc2nc(-c3nn(Cc4ccccc4F)c4ncccc34)nc(NC[C@@H]3CCOC3)c21 [Example 45, 2-[1-(2-fluorobenzyl)-1H-pyrazolo[3,4-b]pyridin-3-yl]-5,5-dimethyl-4-[(tetrahydrofuran-3-ylmethyl)amino]-5,7-dihydro-6H-pyrrolo[2,3-d]pyrimidin-6-one]
 | 16 | C[C@@H](O)CNc1nc(-c2nn(Cc3ccccc3F)c3ncccc23)nc2c1C(C)(C)C(=O)N2 [Example 57, 2-[1-(2-fluorobenzyl)-1H-pyrazolo[3,4-b]pyridin-3-yl]-4-[(2-hydroxypropyl)amino]-5,5-dimethyl-5,7-dihydro-6H-pyrrolo[2,3-d]pyrimidin-6-one]
0.03 |  | CC1(CNc2nc(-c3nn(Cc4ccccc4F)c4ncccc34)nc3c2C(C)(C)C(=O)N3)COC1 [Example 67, 2-[1-(2-fluorobenzyl)-1H-pyrazolo[3,4-b]pyridin-3-yl]-5,5-dimethyl-4-{[(3-methyloxetan-3-yl)methyl]amino}-5,7-dihydro-6H-pyrrolo[2,3-d]pyrimidin-6-one]
0.03 |  | CC1(C)C(=O)Nc2nc(-c3nn(Cc4ccccc4F)c4ncccc34)nc(NCC3CCCC3)c21 [Example 80, 4-[(cyclopentylmethyl)amino]-2-[1-(2-fluorobenzyl)-1H-pyrazolo[3,4-b]pyridin-3-yl]-5,5-dimethyl-5,7-dihydro-6H-pyrrolo[2,3-d]pyrimidin-6-one]
